Experimental data: patent US20120309823A1, “PERCUTANEOUS ABSORPTION PREPARATIONS” (priority 1999, published 2012)

- melting point: 118 to 120 °C
SMILES: CC(=O)NCC[C@@H]1CCc2ccc3c(c21)CCO3
